We go through 3 compounds from patent publication US10800807B2, “TGR5 modulators and methods of use thereof” (Intercept Pharmaceuticals, Inc., priority 2015, dated 2020).

Numbering of substitutions follows the chain as printed. Converted amounts (≈) assume the structure as drawn. Where two headings read alike, the source gives them in different places.

One data set is described as follows: Water solubility. The format is physicochemical. Particulars: simulated gastric fluid, thermodynamic from solid, 0.1 M HCl, pH 1.00, 25° C., read-out: Ws. As for the experimental part:
BA were suspended in 100 ml of 0.1 M HCl, pH 1.00, and the saturated solutions were transferred to a thermostat-equipped water bath maintained at 25° C. After incubation for 1 week, the solutions were filtered on a Millipore filter ([…]), and the concentration of BA was measured by HPLC-ESMS/MS as reported below.

Data set [1] can be described thus: Critical micellar concentration (surface tension / dye solubilization). The format is physicochemical. Particulars: BA sodium salts in 0.1 M NaCl, 25° C.
A short description of data set [2]: Lipophilicity, 1-octanol/water partition coefficient (shake-flask). The note with it: pH 8.00, ionized BA. The format is physicochemical. Here is the method: The experiments were carried out on 1 mM initial bile salt solution buffered at pH 8.00 with 0.1 M potassium phosphate buffer to ensure complete ionization of the BA. BA concentration in the water phase before and after partition in 1-octanol was measured by HPLC-ESMS/MS as reported below.

Another data set addresses bovine serum albumin (Bos taurus, UniProt P02769). The data set is described as follows: Albumin binding by equilibrium dialysis. It counts as in vitro ADME. Particulars: 5% bovine serum albumin saline solution, 25° C. For orientation: In equilibrium dialysis free small molecules cross a membrane that holds back macromolecules.
In the next data set the target is T1, mTGR5 (Mus musculus, UniProt Q80SS6).
T1 construct: expressed in transfected cells; host or cells: CHO-Pi10 clone 4
T1 sequence (Q80SS6 1-329): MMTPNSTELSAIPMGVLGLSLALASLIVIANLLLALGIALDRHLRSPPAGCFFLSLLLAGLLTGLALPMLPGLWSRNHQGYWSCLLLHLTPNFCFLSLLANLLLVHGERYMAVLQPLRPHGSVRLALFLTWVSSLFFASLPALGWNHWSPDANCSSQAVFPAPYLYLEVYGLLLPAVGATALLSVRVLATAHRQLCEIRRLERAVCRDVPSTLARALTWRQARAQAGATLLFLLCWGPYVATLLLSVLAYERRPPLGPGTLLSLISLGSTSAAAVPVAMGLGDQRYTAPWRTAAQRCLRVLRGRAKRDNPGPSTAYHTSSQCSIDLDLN
The data set is described as follows: TGR5 activity: cAMP in mTGR5 CHO-Pi10 clone 4 cells. The format is cell-based. Particulars: for Emax: 0.5 h, read-out: (mTGR5 CHO) Efficacy.

Data set [3] addresses T2, human glutathione transferase-tagged FXR-LBD (Homo sapiens, UniProt Q96RI1).
T2 construct: human glutathione transferase-tagged FXR-LBD (Life Technologies, USA); purchased Life Technologies, USA
T2 sequence (Q96RI1 262-486 limits assumed): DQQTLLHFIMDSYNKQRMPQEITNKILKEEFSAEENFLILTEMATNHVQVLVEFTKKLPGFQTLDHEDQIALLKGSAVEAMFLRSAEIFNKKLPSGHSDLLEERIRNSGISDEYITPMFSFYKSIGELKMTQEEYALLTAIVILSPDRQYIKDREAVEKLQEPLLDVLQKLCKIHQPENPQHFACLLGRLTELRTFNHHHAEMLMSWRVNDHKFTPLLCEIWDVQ
Nature of the data set: FXR AlphaScreen coactivator recruitment assay (human).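 As to hFXR Efficacy: CDCA at 50 µM taken as 100%.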 More on the design: Emax: dose or concentration left out as unconfirmed. Particulars: for EC50: human FXR-LBD, AlphaScreen, read-out: hFXR EC50; for Emax: read-out: hFXR Efficacy. It counts as biochemical. A general note: Alpha assays give light when donor and acceptor beads are brought close together.

Data set [4] deals with T3, mouse glutathione transferase-tagged FXR-LBD (Mus musculus, UniProt Q60641).
T3 construct: mouse glutathione transferase-tagged FXR-LBD (generated in-house); made in house
T3 sequence (Q60641 264-488 limits assumed): T2 sequence (Q96RI1 262-486 limits assumed) with H7D, F8Y, N46S, V50I, S95A, S98A, N107K, I125V, I174M, H175Y
Nature of the data set: FXR AlphaScreen coactivator recruitment assay (mouse). The format is biochemical. The note with it: for EC50: read-out: (mFXR) EC50; for Emax: read-out: (mFXR) Efficacy.

A short description of data set [5]: Critical micellar concentration (surface tension / dye solubilization). The format is physicochemical.
In data set [6] the target is T4, TGR5 (Homo sapiens, UniProt Q8TDU6).
T4 sequence (Q8TDU6 1-330): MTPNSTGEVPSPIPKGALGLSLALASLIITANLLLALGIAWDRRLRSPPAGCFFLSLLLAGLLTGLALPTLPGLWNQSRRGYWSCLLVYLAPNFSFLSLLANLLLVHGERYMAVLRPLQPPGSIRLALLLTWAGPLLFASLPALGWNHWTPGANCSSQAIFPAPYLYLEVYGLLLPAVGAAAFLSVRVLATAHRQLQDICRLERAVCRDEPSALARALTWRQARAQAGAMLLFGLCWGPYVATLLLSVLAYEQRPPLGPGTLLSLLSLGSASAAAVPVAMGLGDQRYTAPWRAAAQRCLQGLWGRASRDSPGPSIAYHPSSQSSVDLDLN
Nature of the data set: TGR5 activity: intracellular cAMP levels, NCI-H716 cells (HTR-FRET). The format is cell-based. Further details: endogenous in cells; host or cells: NCI-H716. The note with it: for Emax: read-out: TGR5 (NCI-H716) Efficacy; for EC50: cAMP. As for the experimental part:
Activation of TGR5 was assessed by measuring the level of cAMP using an HTR-FRET assay. Thus, NCI-H716 cells were cultured on 96-well plates coated with Matrigel (Corning, USA) (0.75 mg/ml) in DMEM supplemented with 10% FCS, 100 units/ml penicillin, and 100 μg/ml streptomycin sulphate. […] The level of intracellular cAMP was determined with Lance kit. Z′ factor was used to validate assays.

Data set [7] addresses T4, TGR5. The data set is described as follows: TGR5 activity: cAMP in hTGR5 CHO-k1 cells. It counts as cell-based. Particulars: for Emax: 0.5 h, read-out: hTGR5 CHO Efficacy; for EC50: cAMP. Further details: expressed in transfected cells; host or cells: CHO-k1.
Setting [8] is: mTGR5 CHO cells, value in parentheses.
The mark [9] stands for this setting: mouse FXR-LBD, value in parentheses.

Sequence of bovine serum albumin (P02769 25-607): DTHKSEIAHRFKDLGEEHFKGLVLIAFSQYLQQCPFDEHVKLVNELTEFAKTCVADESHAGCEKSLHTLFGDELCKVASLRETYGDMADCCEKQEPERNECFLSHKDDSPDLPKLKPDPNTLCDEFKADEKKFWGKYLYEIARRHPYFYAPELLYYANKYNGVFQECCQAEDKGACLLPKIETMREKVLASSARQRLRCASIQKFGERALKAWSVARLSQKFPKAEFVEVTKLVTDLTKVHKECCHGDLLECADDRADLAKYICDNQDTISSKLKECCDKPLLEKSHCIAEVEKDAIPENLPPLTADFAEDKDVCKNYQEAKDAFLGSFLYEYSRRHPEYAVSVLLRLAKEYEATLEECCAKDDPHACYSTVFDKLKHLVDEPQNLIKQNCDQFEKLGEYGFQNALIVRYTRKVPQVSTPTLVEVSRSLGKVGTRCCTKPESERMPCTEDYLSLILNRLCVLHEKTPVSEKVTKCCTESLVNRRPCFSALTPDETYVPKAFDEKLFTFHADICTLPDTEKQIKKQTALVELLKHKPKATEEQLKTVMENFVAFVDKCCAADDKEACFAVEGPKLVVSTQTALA

For `CC[C@H]1[C@@H](O)C2C3CC[C@H]([C@H](C)C(F)(F)C(=O)O)[C@@]3(C)CCC2[C@@]2(C)CC[C@@H](O)C[C@@H]12` (stereo partly drawn) (hydrate or solvate), the melting point – broadly, the temperature, or range, at which the solid turns liquid – lay in the range of 254 to 256 °C.
Consider `CC[C@H]1[C@@H](O)[C@@H]2[C@H](CC[C@]3(C)[C@@H]([C@H](C)CCc4nn[nH]n4)[C@@H](O)C[C@@H]23)[C@@]2(C)CC[C@@H](O)C[C@@H]12` [Compound 17, 3α,7α,16β-Trihydroxy-6α-ethyl-23-(tetrazol-5-yl)-24-nor-5β-cholane], for which the solubility thermodynamic at 1 week in “Water solubility” was 5 µM (≈ 2.3 µg/mL). Also, in data set [1], the CMC amounted to 11 mM. The “LogPA−” value in [2] is given as 2.0. In addition, at bovine serum albumin, the “Albumin binding (%)” value is 90%. Besides, the Emax on mTGR5 (setting [8]) amounted to 101%; in [3] it was 138 ± 9%; in data set [4] (setting [9]), 171%; at TGR5 [6] (1 h, NCI-H716 cells, Ref. LCA 100% at 10 μM), 119 ± 2%; at TGR5 [7] (hTGR5 CHO cells, Ref. LCA 100% at 10 μM), 103 ± 2%. Also, the EC50 (commonly the concentration needed to bring the measured effect to its halfway point) on mTGR5 (setting [8]) stood at 800 nM; in [3], 450 ± 50 nM; in [4] (setting [9]), 2300 nM; on TGR5 [6] (NCI-H716 cells), 1200 ± 100 nM; on TGR5 [7] (hTGR5 CHO cells), 100 ± 40 nM. Further, the pKa (usually the negative logarithm of the acid dissociation constant) in “pKa” is 5.71. In addition, the CMpH in data set [5] is given as 9.0.
On to `CC[C@H]1[C@@H](O)C2C3CC[C@H]([C@H](C)CC(=O)NCCO)[C@@]3(C)CCC2[C@@]2(C)CC[C@@H](O)C[C@@H]12` (stereo partly drawn) [Compound 19, 3α,7α-Dihydroxy-6α-ethyl-N-(2-hydroxyethyl)-24-nor-5β-cholan-23-amide], for which the solubility thermodynamic at 1 week in “Water solubility” was 2150 µM (≈ 967 µg/mL). Further, the CMC in [1] is 5 mM. In addition, the “LogPA−” value in [2] was found to be 1.0. Further, the “Albumin binding (%)” value at bovine serum albumin is recorded as 51%. Further, the Emax at mTGR5 (CHO) was 106%; in [3], 137 ± 2%; in data set [4], 122%; at TGR5 [6] (NCI-H716, 1 h) it was 128 ± 1%; on TGR5 [7] (CHO), 105 ± 2%. In addition, the EC50 at mTGR5 (setting [8]) was determined as 80 nM; in [3] it was 3000 ± 1000 nM; in data set [4] (setting [9]), 10000 nM; on TGR5 [6] (NCI-H716 cells) it was 160 ± 10 nM; at TGR5 [7] (hTGR5 CHO cells), 20 ± 8 nM. Further, in the data set “pKa”, the pKa came out at 14.3. The compound further had a CMpH in data set [5] of 1.3.
